Results reported in PubChem BioAssay AID1963829 (Molecular Pharmacology Branch, DTP, NCI, 2024).

Test system: 935938-334-R-J1-PDC complex spheroid viability
Assay: Anticancer human tumor 935938-334-R-J1-PDC patient-derived small intestine adenocarcinoma cell line growth inhibition [POLQ]
Conditions: for IC50: curve of first compound; for viability, T/C: stronger effect = lower value; active = viability on the fitted dose curve at most 10% of control; inactive = the rest
How it was run: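 PDC + HUVEC + MSC complex spheroids; POLQ inhibitors ± partner drugs; top conc. at/near clinical Cmax, else 10 microM (SN-38 1 microM), half-log dilutions; 37 degrees C, 5% CO2.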

[1] = second compound 0.0316 µM, first compound 0.0316 µM
[2] = second compound 0.0316 µM, first compound 0.1 µM
[3] = second compound 0.1 µM, first compound 0.0316 µM
[4] = second compound 0.1 µM, first compound 0.1 µM
[5] = second compound 0.316 µM, first compound 0.0316 µM
[6] = second compound 0.316 µM, first compound 0.1 µM
[7] = second compound 1 µM, first compound 0.0316 µM
[8] = second compound 1 µM, first compound 0.1 µM
[9] = second compound 3.16 µM, first compound 0.0316 µM
[10] = second compound 3.16 µM, first compound 0.1 µM
[11] = second compound 10 µM, first compound 0.0316 µM
[12] = second compound 10 µM, first compound 0.1 µM
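Also: spheroids exposed to drugs for seven days before viability read.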
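For viability, T/C in this document: 100% = DMSO vehicle control wells.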

CC(=O)O[C@H]1C(=O)[C@@]2(C)[C@H]([C@H](OC(=O)c3ccccc3)[C@]3(O)C[C@H](OC(=O)[C@H](O)[C@@H](NC(=O)c4ccccc4)c4ccccc4)C(C)=C1C3(C)C)[C@]1(OC(C)=O)CO[C@@H]1C[C@@H]2O + Cc1cccc(N(C)C(=O)C2C(O)CCN2c2nc(C)cc(C(F)(F)F)c2C#N)c1
< 0.00949 µM: IC50 (second compound 0.0316 µM) | IC50 (second compound 0.1 µM) | IC50 (second compound 0.316 µM) | IC50 (second compound 1 µM) | IC50 (second compound 3.16 µM) | IC50 (second compound 10 µM)
inactive: viability, T/C (second compound 0.0316 µM, first compound 0.00949 µM) 35.9% | viability, T/C (second compound 0.0316 µM, first compound 0.03 µM) 21.7% | viability, T/C (second compound 0.0316 µM, first compound 0.0949 µM) 16.1% | viability, T/C (second compound 0.0316 µM, first compound 0.3 µM) 15.5% | viability, T/C (second compound 0.0316 µM, first compound 0.949 µM) 19.6% | viability, T/C (second compound 0.0316 µM, first compound 3 µM) 18.6% | viability, T/C (second compound 0.1 µM, first compound 0.00949 µM) 38.3% | viability, T/C (second compound 0.1 µM, first compound 0.03 µM) 20.5% | viability, T/C (second compound 0.1 µM, first compound 0.0949 µM) 13.9% | viability, T/C (second compound 0.1 µM, first compound 0.3 µM) 13.2% | viability, T/C (second compound 0.1 µM, first compound 0.949 µM) 19.7% | viability, T/C (second compound 0.1 µM, first compound 3 µM) 15.4% | viability, T/C (second compound 0.316 µM, first compound 0.00949 µM) 35.3% | viability, T/C (second compound 0.316 µM, first compound 0.03 µM) 21.7% | viability, T/C (second compound 0.316 µM, first compound 0.0949 µM) 16.7% | viability, T/C (second compound 0.316 µM, first compound 0.3 µM) 19% | viability, T/C (second compound 0.316 µM, first compound 0.949 µM) 21.5% | viability, T/C (second compound 0.316 µM, first compound 3 µM) 16% | viability, T/C (second compound 1 µM, first compound 0.00949 µM) 34.2% | viability, T/C (second compound 1 µM, first compound 0.03 µM) 19.4% | viability, T/C (second compound 1 µM, first compound 0.0949 µM) 15.6% | viability, T/C (second compound 1 µM, first compound 0.3 µM) 16.9% | viability, T/C (second compound 1 µM, first compound 0.949 µM) 18.6% | viability, T/C (second compound 1 µM, first compound 3 µM) 16% | viability, T/C (second compound 3.16 µM, first compound 0.00949 µM) 38.3% | viability, T/C (second compound 3.16 µM, first compound 0.03 µM) 17.8% | viability, T/C (second compound 3.16 µM, first compound 0.0949 µM) 15.4% | viability, T/C (second compound 3.16 µM, first compound 0.3 µM) 16% | viability, T/C (second compound 3.16 µM, first compound 0.949 µM) 19.2% | viability, T/C (second compound 3.16 µM, first compound 3 µM) 15.8% | viability, T/C (second compound 10 µM, first compound 0.00949 µM) 31.6% | viability, T/C (second compound 10 µM, first compound 0.03 µM) 17.8% | viability, T/C (second compound 10 µM, first compound 0.0949 µM) 12.4% | viability, T/C (second compound 10 µM, first compound 0.3 µM) 14.9% | viability, T/C (second compound 10 µM, first compound 0.949 µM) 18.1% | viability, T/C (second compound 10 µM, first compound 3 µM) 14.4%

CNCc1ccc(-c2[nH]c3cc(F)cc4c3c2CCNC4=O)cc1 + COC1C(OC(N)=O)C(O)C(Oc2ccc3c(O)c(NC(=O)c4ccc(O)c(CC=C(C)C)c4)c(=O)oc3c2C)OC1(C)C
> 10 µM: IC50 (second compound 0.0316 µM) | IC50 (second compound 0.1 µM) | IC50 (second compound 0.316 µM) | IC50 (second compound 1 µM) | IC50 (second compound 3.16 µM) | IC50 (second compound 10 µM)
inactive: viability, T/C [1] 124% | viability, T/C [2] 97.1% | viability, T/C (second compound 0.0316 µM, first compound 0.316 µM) 87.9% | viability, T/C (second compound 0.0316 µM, first compound 1 µM) 87.4% | viability, T/C (second compound 0.0316 µM, first compound 3.16 µM) 75.4% | viability, T/C (second compound 0.0316 µM, first compound 10 µM) 83.4% | viability, T/C [3] 79.9% | viability, T/C [4] 111% | viability, T/C (second compound 0.1 µM, first compound 0.316 µM) 94.9% | viability, T/C (second compound 0.1 µM, first compound 1 µM) 87.6% | viability, T/C (second compound 0.1 µM, first compound 3.16 µM) 98.5% | viability, T/C (second compound 0.1 µM, first compound 10 µM) 96.7% | viability, T/C [5] 115% | viability, T/C [6] 108% | viability, T/C (second compound 0.316 µM, first compound 0.316 µM) 94.9% | viability, T/C (second compound 0.316 µM, first compound 1 µM) 92.3% | viability, T/C (second compound 0.316 µM, first compound 3.16 µM) 84% | viability, T/C (second compound 0.316 µM, first compound 10 µM) 87.8% | viability, T/C [7] 92.6% | viability, T/C [8] 105% | viability, T/C (second compound 1 µM, first compound 0.316 µM) 113% | viability, T/C (second compound 1 µM, first compound 1 µM) 105% | viability, T/C (second compound 1 µM, first compound 3.16 µM) 98.8% | viability, T/C (second compound 1 µM, first compound 10 µM) 92.9% | viability, T/C [9] 87.5% | viability, T/C [10] 100% | viability, T/C (second compound 3.16 µM, first compound 0.316 µM) 70.7% | viability, T/C (second compound 3.16 µM, first compound 1 µM) 75.2% | viability, T/C (second compound 3.16 µM, first compound 3.16 µM) 94% | viability, T/C (second compound 3.16 µM, first compound 10 µM) 99.2% | viability, T/C [11] 95.7% | viability, T/C [12] 113% | viability, T/C (second compound 10 µM, first compound 0.316 µM) 82.9% | viability, T/C (second compound 10 µM, first compound 1 µM) 94.4% | viability, T/C (second compound 10 µM, first compound 3.16 µM) 117% | viability, T/C (second compound 10 µM, first compound 10 µM) 88.7%

CC[C@@]1(O)C(=O)OCc2c1cc1n(c2=O)Cc2cc3c(CN(C)C)c(O)ccc3nc2-1 + COC1C(OC(N)=O)C(O)C(Oc2ccc3c(O)c(NC(=O)c4ccc(O)c(CC=C(C)C)c4)c(=O)oc3c2C)OC1(C)C
0.0933 µM: IC50 (second compound 0.316 µM)
> 0.1 µM: IC50 (second compound 0.0316 µM) | IC50 (second compound 10 µM)
0.0903 µM: IC50 (second compound 1 µM)
0.0915 µM: IC50 (second compound 3.16 µM)
0.0808 µM: IC50 (second compound 0.1 µM)
inactive: viability, T/C (second compound 0.0316 µM, first compound 0.000316 µM) 90.7% | viability, T/C (second compound 0.0316 µM, first compound 0.001 µM) 81.6% | viability, T/C (second compound 0.0316 µM, first compound 0.00316 µM) 98.1% | viability, T/C (second compound 0.0316 µM, first compound 0.01 µM) 92.1% | viability, T/C [1] 86.1% | viability, T/C [2] 56.5% | viability, T/C (second compound 0.1 µM, first compound 0.000316 µM) 94.2% | viability, T/C (second compound 0.1 µM, first compound 0.001 µM) 81.4% | viability, T/C (second compound 0.1 µM, first compound 0.00316 µM) 100% | viability, T/C (second compound 0.1 µM, first compound 0.01 µM) 90.9% | viability, T/C [3] 79% | viability, T/C [4] 43% | viability, T/C (second compound 0.316 µM, first compound 0.000316 µM) 94.7% | viability, T/C (second compound 0.316 µM, first compound 0.001 µM) 72.9% | viability, T/C (second compound 0.316 µM, first compound 0.00316 µM) 103% | viability, T/C (second compound 0.316 µM, first compound 0.01 µM) 97.7% | viability, T/C [5] 94.8% | viability, T/C [6] 47.2% | viability, T/C (second compound 1 µM, first compound 0.000316 µM) 109% | viability, T/C (second compound 1 µM, first compound 0.001 µM) 83.1% | viability, T/C (second compound 1 µM, first compound 0.00316 µM) 76.4% | viability, T/C (second compound 1 µM, first compound 0.01 µM) 74.8% | viability, T/C [7] 97.3% | viability, T/C [8] 46.3% | viability, T/C (second compound 3.16 µM, first compound 0.000316 µM) 127% | viability, T/C (second compound 3.16 µM, first compound 0.001 µM) 76.6% | viability, T/C (second compound 3.16 µM, first compound 0.00316 µM) 79.3% | viability, T/C (second compound 3.16 µM, first compound 0.01 µM) 77% | viability, T/C [9] 104% | viability, T/C [10] 46.4% | viability, T/C (second compound 10 µM, first compound 0.000316 µM) 109% | viability, T/C (second compound 10 µM, first compound 0.001 µM) 133% | viability, T/C (second compound 10 µM, first compound 0.00316 µM) 89.3% | viability, T/C (second compound 10 µM, first compound 0.01 µM) 67.2% | viability, T/C [11] 71.7% | viability, T/C [12] 49.3%
